This is an account of results in ChEMBL document CHEMBL1255573, “Synthesis and biochemical characterization of a series of 17α-perfluoroalkylated estradiols as selective ligands for estrogen receptor α” (J Med Chem, 2010).

Test [1] concerns the target T1, Estrogen receptor (Homo sapiens, UniProt P03372).
T1 sequence (P03372 whole entry): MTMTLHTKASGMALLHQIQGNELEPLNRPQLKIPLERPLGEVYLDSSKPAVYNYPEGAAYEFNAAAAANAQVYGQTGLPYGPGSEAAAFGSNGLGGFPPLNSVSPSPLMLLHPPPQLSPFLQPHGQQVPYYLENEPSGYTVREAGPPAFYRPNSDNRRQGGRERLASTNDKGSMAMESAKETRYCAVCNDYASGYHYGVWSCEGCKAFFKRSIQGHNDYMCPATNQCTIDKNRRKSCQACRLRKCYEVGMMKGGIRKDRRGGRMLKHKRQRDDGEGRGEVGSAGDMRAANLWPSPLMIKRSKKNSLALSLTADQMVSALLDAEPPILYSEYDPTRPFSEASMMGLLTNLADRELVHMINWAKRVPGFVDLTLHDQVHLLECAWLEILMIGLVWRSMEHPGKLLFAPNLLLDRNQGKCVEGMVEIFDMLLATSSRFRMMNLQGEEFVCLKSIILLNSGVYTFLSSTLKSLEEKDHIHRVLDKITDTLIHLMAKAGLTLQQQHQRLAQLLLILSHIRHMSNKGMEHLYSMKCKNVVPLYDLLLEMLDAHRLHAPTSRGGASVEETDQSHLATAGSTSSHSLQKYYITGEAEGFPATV
Briefly: Agonist activity at ERalpha-LBD in human U2OS cells transfected with Gal4-DBD assessed as increase of transactivation activity after 18 hrs by luciferase reporter gene assay. The class given is functional, cell-based. The note with it: for pEC50: u2os.

Test [2] has as its target T2, Estrogen receptor beta (Homo sapiens, UniProt Q92731). Briefly: Agonist activity at ERbeta-LBD in human U2OS cells transfected with Gal4-DBD assessed as increase of transactivation activity after 18 hrs by luciferase reporter gene assay. In kind it is functional, cell-based. Conditions: for pEC50: u2os.
The target of test [3] is T3, Mineralocorticoid receptor (Homo sapiens, UniProt P08235).
T3 sequence (P08235 whole entry): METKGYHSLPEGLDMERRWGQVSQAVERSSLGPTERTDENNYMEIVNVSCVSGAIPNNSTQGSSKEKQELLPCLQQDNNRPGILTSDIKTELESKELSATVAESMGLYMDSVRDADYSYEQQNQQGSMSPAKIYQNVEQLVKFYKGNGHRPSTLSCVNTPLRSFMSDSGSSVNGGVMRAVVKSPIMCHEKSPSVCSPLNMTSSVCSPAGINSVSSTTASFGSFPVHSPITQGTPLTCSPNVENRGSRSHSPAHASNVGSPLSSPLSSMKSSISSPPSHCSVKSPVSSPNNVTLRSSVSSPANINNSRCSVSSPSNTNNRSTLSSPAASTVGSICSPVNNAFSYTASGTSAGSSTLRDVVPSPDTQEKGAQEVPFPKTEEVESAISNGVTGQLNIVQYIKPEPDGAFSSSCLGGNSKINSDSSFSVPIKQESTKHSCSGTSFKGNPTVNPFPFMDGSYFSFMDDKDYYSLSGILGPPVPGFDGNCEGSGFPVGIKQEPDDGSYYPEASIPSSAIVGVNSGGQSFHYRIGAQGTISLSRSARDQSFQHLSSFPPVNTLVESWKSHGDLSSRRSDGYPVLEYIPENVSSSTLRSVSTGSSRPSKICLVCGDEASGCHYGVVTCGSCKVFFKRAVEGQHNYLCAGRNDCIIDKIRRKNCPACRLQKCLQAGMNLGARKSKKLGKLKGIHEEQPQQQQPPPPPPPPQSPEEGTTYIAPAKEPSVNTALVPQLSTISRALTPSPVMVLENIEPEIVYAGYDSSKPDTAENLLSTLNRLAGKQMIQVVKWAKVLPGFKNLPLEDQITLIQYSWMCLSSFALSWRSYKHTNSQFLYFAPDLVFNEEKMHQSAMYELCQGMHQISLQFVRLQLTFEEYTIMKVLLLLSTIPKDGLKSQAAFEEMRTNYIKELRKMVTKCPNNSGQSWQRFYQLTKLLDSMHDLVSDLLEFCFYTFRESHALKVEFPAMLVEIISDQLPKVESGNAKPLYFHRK
Briefly: Agonist activity at mineralocorticoid receptor-LBD in human U2OS cells transfected with Gal4-DBD assessed as increase of transactivation activity after 18 hrs by luciferase reporter gene assay. The class given is functional, cell-based.

The target in test [4] is T1, Estrogen receptor. Nature of the test: Antagonist activity at ERalpha-LBD in human U2OS cells transfected with Gal4-DBD assessed as inhibition of transactivation activity after 18 hrs by luciferase reporter gene assay. In kind it is functional, cell-based.
The target in test [5] is T2, Estrogen receptor beta. Nature of the test: Antagonist activity at ERbeta-LBD in human U2OS cells transfected with Gal4-DBD assessed as inhibition of transactivation activity after 18 hrs by luciferase reporter gene assay. In kind it is functional, cell-based. On the technique in general: In a reporter assay the amount or activity of a reporter protein is the signal.

In test [6] the target is T3, Mineralocorticoid receptor. Briefly: Antagonist activity at mineralocorticoid receptor-LBD in human U2OS cells transfected with Gal4-DBD assessed as inhibition of transactivation activity after 18 hrs by luciferase reporter gene assay. In kind it is functional, cell-based. Conditions: for pIC50: u2os.
The target of test [7] is T4, Glucocorticoid receptor (Homo sapiens, UniProt P04150).
T4 sequence (P04150 whole entry): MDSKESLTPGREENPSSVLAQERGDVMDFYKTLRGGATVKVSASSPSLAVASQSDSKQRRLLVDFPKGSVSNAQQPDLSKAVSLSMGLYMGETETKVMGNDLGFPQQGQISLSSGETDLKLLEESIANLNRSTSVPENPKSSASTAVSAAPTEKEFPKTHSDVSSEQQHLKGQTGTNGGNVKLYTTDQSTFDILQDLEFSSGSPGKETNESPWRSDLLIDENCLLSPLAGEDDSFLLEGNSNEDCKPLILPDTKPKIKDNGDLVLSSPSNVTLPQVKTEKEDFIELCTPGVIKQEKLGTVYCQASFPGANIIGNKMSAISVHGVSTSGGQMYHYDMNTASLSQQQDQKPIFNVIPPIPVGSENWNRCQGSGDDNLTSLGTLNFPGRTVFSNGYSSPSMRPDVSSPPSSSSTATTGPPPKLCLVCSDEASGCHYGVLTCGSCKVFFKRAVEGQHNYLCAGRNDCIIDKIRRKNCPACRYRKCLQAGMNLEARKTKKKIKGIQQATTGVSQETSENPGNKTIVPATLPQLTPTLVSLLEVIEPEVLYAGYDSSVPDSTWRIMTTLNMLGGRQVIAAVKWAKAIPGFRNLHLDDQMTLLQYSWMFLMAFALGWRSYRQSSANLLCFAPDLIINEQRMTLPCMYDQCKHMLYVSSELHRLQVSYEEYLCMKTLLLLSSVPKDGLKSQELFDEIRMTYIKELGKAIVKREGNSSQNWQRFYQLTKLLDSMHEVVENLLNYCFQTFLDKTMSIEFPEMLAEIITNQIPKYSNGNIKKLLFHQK
Description: Agonist activity at glucocorticoid receptor-LBD in human U2OS cells transfected with Gal4-DBD assessed as increase of transactivation activity after 18 hrs by luciferase reporter gene assay

Test [8] addresses T4, Glucocorticoid receptor. The source holds these as a separate data set.
Description: Antagonist activity at glucocorticoid receptor-LBD in human U2OS cells transfected with Gal4-DBD assessed as inhibition of transactivation activity after 18 hrs by luciferase reporter gene assay
In test [9] the target is T2, Estrogen receptor beta. Nature of the test: Agonist activity at ERbeta-LBD in human U2OS cells transfected with Gal4-DBD assessed as increase of transactivation activity after 18 hrs by luciferase reporter gene assay relative to 17-beta-estradiol. The class given is functional, cell-based.

T2 sequence (Q92731 whole entry, the tested form may be a part): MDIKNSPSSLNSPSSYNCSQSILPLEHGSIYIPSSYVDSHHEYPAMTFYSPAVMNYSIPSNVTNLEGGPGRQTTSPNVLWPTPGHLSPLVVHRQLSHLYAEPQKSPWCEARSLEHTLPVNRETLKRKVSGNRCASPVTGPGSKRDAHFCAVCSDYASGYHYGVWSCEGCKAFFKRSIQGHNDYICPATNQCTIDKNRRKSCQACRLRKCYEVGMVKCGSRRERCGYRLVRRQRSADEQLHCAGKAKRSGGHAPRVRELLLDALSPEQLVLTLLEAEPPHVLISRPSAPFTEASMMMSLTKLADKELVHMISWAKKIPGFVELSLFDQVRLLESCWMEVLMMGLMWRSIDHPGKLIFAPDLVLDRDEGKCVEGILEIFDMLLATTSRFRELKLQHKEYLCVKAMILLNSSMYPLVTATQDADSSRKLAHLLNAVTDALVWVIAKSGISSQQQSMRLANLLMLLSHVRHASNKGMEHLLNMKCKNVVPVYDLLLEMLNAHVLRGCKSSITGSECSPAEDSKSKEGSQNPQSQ

Turning to `C[C@]12CC[C@@H]3c4ccc(O)cc4CC[C@H]3[C@@H]1CC[C@@]2(O)/C=C/CC(F)(F)C(F)(F)C(F)(F)C(F)(F)C(F)(F)C(F)(F)F`, the EC50 on Estrogen receptor [1] was 2.08 µM; at Estrogen receptor beta [2], less than 2.75 µM; in [3], less than 15.8 µM; at Glucocorticoid receptor [7], less than 15.8 µM. Further, the concentration for half-maximal inhibition (IC50) at Estrogen receptor [4] was less than 15.8 µM; at Estrogen receptor beta [5], less than 11.9 µM; in [6], less than 5.36 µM; against Glucocorticoid receptor [8], less than 15.8 µM.

Consider `C[C@]12CC[C@@H]3c4ccc(O)cc4CC[C@H]3[C@@H]1CC[C@@]2(O)/C=C/CC(F)(F)C(F)(F)C(F)(F)F`, for which the EC50 at Estrogen receptor [1] was 0.0355 µM; at Estrogen receptor beta [2], 0.129 µM; in test [3], less than 15.8 µM; on Glucocorticoid receptor [7], less than 15.8 µM. The Activity on Estrogen receptor beta [9] is 0.35%. For the same compound, the IC50 at Estrogen receptor [4] is less than 15.8 µM; at Estrogen receptor beta [5], less than 12.4 µM; in test [6] it was 3.81 µM; against Glucocorticoid receptor [8] it was 3.13 µM.

For `C[C@]12CC[C@@H]3c4ccc(O)cc4CC[C@H]3[C@@H]1CC[C@@]2(O)C/C=C/CC(F)(F)C(F)(F)C(F)(F)F`, the EC50 on Estrogen receptor [1] is 0.485 µM; at Estrogen receptor beta [2], 2.4 µM; in test [3], less than 15.8 µM; at Glucocorticoid receptor [7] it was less than 15.8 µM. For the same compound, the Activity at Estrogen receptor beta [9] was 0.02%. The IC50 on Estrogen receptor [4] was less than 15.8 µM; at Estrogen receptor beta [5], less than 15.8 µM; on Glucocorticoid receptor [8], less than 5.5 µM. In [6], the negative logarithm of the IC50 (pIC50) is more than 4.901.

In the case of `COc1ccc2c(c1)CC[C@@H]1[C@@H]2CC[C@@]2(C)[C@H]1CC[C@@]2(O)C/C=C/CC(F)(F)C(F)(F)C(F)(F)C(F)(F)C(F)(F)C(F)(F)F`, the values for the pEC50 on Estrogen receptor [1] and at Estrogen receptor beta [2] were more than 4.8 and more than 4.902, respectively. The EC50 in test [3] is less than 15.8 µM; on Glucocorticoid receptor [7], 0.00673 µM. Moreover, the IC50 at Estrogen receptor [4], on Estrogen receptor beta [5] and against Glucocorticoid receptor [8] was less than 15.8 µM each time. Further, the pIC50 in test [6] was more than 4.8.

Consider `COc1ccc2c(c1)CC[C@@H]1[C@@H]2CC[C@@]2(C)[C@H]1CC[C@@]2(O)/C=C/CC(F)(F)C(F)(F)C(F)(F)F`, for which the EC50 on Estrogen receptor [1] was 4.03 µM; at Estrogen receptor beta [2] it was 5.19 µM; in test [3], less than 15.8 µM; at Glucocorticoid receptor [7] it was less than 15.8 µM. Also, the Activity on Estrogen receptor beta [9] is 0.01%. Besides, the figures for the IC50 on Estrogen receptor [4], at Estrogen receptor beta [5] and on Glucocorticoid receptor [8] were less than 15.8 µM, less than 15.8 µM and less than 9.25 µM, respectively. Besides, the pIC50 in test [6] is reported as more than 4.841.

As to `COc1ccc2c(c1)CC[C@@H]1[C@@H]2CC[C@@]2(C)[C@H]1CC[C@@]2(O)C/C=C/CC(F)(F)C(F)(F)C(F)(F)F`, the figures for the concentration for a half-maximal effect (EC50) (at Estrogen receptor [1]; in test [3]; at Glucocorticoid receptor [7]) were 1.66 µM, less than 15.8 µM and less than 15.8 µM, respectively. The pEC50 at Estrogen receptor beta [2] was more than 4.817. For the same compound, the IC50 on Estrogen receptor [4], on Estrogen receptor beta [5] and at Glucocorticoid receptor [8] was less than 15.8 µM each time. Besides, the pIC50 in test [6] is reported as more than 4.8.

With `C[C@]12CC[C@@H]3c4ccc(O)cc4CC[C@H]3[C@@H]1CC[C@@]2(O)/C=C/CC(F)(C(F)(F)F)C(F)(F)F`, the values for the EC50 (on Estrogen receptor [1]; in test [3]; at Glucocorticoid receptor [7]) were 9.95 µM, less than 15.8 µM and less than 15.8 µM, respectively. Moreover, on Estrogen receptor beta [2], the pEC50 is more than 4.713. Besides, the IC50 at Estrogen receptor [4] was less than 15.8 µM; on Estrogen receptor beta [5] it was less than 15.7 µM; in test [6], less than 6.65 µM; against Glucocorticoid receptor [8], 13.6 µM.

Take `C[C@]12CC[C@@H]3c4ccc(O)cc4CC[C@H]3[C@@H]1CC[C@@]2(O)C/C=C/CC(F)(C(F)(F)F)C(F)(F)F`: the EC50 at Estrogen receptor [1] was 0.403 µM; in test [3], less than 15.8 µM; on Glucocorticoid receptor [7] it was less than 15.8 µM. Moreover, the pEC50 at Estrogen receptor beta [2] is more than 4.8. Also, the IC50 is less than 15.8 µM on Estrogen receptor [4], less than 4.05 µM at Estrogen receptor beta [5], 5.14 µM in test [6] and less than 13.5 µM on Glucocorticoid receptor [8].

As for `C[C@]12CC[C@@H]3c4ccc(O)cc4CC[C@H]3[C@@H]1CC[C@@]2(O)C/C=C/CC(F)(F)C(F)(F)C(F)(F)C(F)(F)C(F)(F)C(F)(F)F`, the concentration for a half-maximal effect (EC50) on Estrogen receptor [1] is 1.03 µM; at Estrogen receptor beta [2], 0.052 µM; in test [3] it was less than 15.8 µM; on Glucocorticoid receptor [7], less than 15.8 µM. The Activity at Estrogen receptor beta [9] was determined as 0.88%. Besides, the IC50 on Estrogen receptor [4] is less than 15.8 µM; on Estrogen receptor beta [5], less than 15.8 µM; in test [6], less than 4.82 µM; on Glucocorticoid receptor [8], less than 15.8 µM.

For `COc1ccc2c(c1)CC[C@@H]1[C@@H]2CC[C@@]2(C)[C@H]1CC[C@@]2(O)/C=C/CC(F)(F)C(F)(F)C(F)(F)C(F)(F)C(F)(F)C(F)(F)F`, the pEC50 at Estrogen receptor [1] is more than 4.8. Besides, the EC50 is less than 8.34 µM at Estrogen receptor beta [2], less than 15.8 µM in test [3] and less than 15.8 µM on Glucocorticoid receptor [7]. Also, the IC50 at Estrogen receptor [4], on Estrogen receptor beta [5] and against Glucocorticoid receptor [8] was less than 15.8 µM throughout. Also, in test [6], the pIC50 is listed as more than 4.8.

The EC50 is the concentration giving half of the maximal effect. As a reminder, the IC50 is the point on the concentration scale where inhibition reaches its midpoint. Usually pIC50 stands for −log10 of the IC50, conventionally taken in molar units. What is called pEC50 is −log10 of the EC50, conventionally taken in molar units.
